Patent US5356882A, “Antiviral pyrimidine nucleosides” (University of Birmingham, priority 1989, dated 1994)

What was measured:
[1] = CCID50 (Table 1; method not described); assay type: cell-based
VZV = test: Anti-VZV Activity, plaque reduction assay in MRC-5 cells; assay type: cell-based, varicella zoster virus (clinical isolates); conditions: Human alphaherpesvirus 3, MRC5, MRC-5 cells, clinical isolates
Protocol: Clinical isolates of varicella zoster virus (VZV) were assayed in monolayers of MRC-5 cells. MRC-5 cells are derived from human embyonic lung tissue. A plaque reduction assay was used in which a suspension Of the virus stock was used to infect monolayers of the cells in multiwell trays. a range of concentrations of the compound under test of known molarity was added to the wells. Plaque numbers at each concnetration were expressed as percentages of the control and a dose response curve was constructed. From these curves the 50% inhibitory concentration of each drug was determined.

HSV1 = test: Anti-HSV Activity, plaque reduction assay in Vero cells (HSV-1 strain SC16); assay type: cell-based, Herpes Simplex Virus type 1 (strain SC16)
Protocol: (§1) Herpes Simplex Virus types 1 (HSV 1) and 2 (HSV2) were assayed in monolayers of Vero cells in multiwell trays. The virus strains used were SC16 and 186 for HSV-1 and HSV-2 respectively. Activity of compounds was determined in the plaque reduction assay, in which a cell monolayer was infected with a suspension of the appropirate HSV, and then overlaid with nutrient agarose in the form of a gel to ensure that there was no spread of virus throughout the culture. A range of concentrations of compound of known molarity was incorporated in the nutrient agarose overlay. Plaque numbers at each concentration were expressed as percentages of the control and a dose-response curve was drawn. From this curve the 50% inhibitory concentration (IC50) was estimated to be 0.66 μm for the compound of formula (I) in which X represents a 2-bromovinyl group.

HSV2 = test: Anti-HSV Activity, plaque reduction assay in Vero cells (HSV-2 strain 186); assay type: cell-based, Herpes Simplex Virus type 2 (strain 186)
Protocol: as §1

[2] = toxicity / therapeutic index (general statement); conditions: statement in words

SMILES: O=c1[nH]c(=O)n([C@H]2C[C@H](O)[C@@H](CO)S2)cc1/C=C/Br [CH=CHBr, OH, E-5-(2-bromovinyl)-2'-deoxy-4'-thiouridine]
- CC50 [1]: > 500000 nM

SMILES: CCc1cn([C@H]2C[C@H](O)[C@@H](CO)S2)c(=O)[nH]c1=O [CH2 CH3, OH, 2'-Deoxy-5-ethyl-4'thiouridine]
- IC50 (VZV): 790 nM

SMILES: Cc1cn([C@H]2C[C@H](O)[C@@H](CO)S2)c(=O)[nH]c1=O [β-4'-thio-thymidine]
- activity against HSV1 (HSV1; statement in words): good activity
- activity against HSV2 (HSV2; statement in words): good activity
- toxicity [2]: toxic

SMILES: Nc1nc(=O)n([C@H]2C[C@H](O)[C@@H](CO)S2)cc1/C=C/Br [CH=CHBr, NH2, 2'-Deoxy-5-E-(2-bromovinyl)-4'-thiocytidine]
- IC50 (HSV1; Vero cells, strain SC16, plaque reduction): ~2300 nM
- IC50 (HSV2; Vero cells, strain 186, plaque reduction): > 10000 nM
